Source: patent US20170067909A1, “ASSAY-READY RECOMBINANT CELLS TRANSIENTLY OVEREXPRESSING GENES ENCODING DRUG TRANSPORTER PROTEINS AND/OR DRUG METABOLIZING ENZYMES” (Corning Incorporated, priority 2012, published 2017)
Numbering of substitutions follows the chain as printed.

Key:
[1] = molecular target: T1, Organic Anion-Transporting Polypeptide 1B1 (Homo sapiens, UniProt Q9Y6L6); assay: Suspension assay, vacuum manifold, Corning TransportoCells OATP1B1*1a; format: in vitro ADME; conditions: 5× substrate solution containing 25 μM, 10 minutes at 37° C., 600 k cells/well
T1 construct: host or cells: HEK293 cells, gene delivered by electroporation
T1 sequence (Q9Y6L6 1-691): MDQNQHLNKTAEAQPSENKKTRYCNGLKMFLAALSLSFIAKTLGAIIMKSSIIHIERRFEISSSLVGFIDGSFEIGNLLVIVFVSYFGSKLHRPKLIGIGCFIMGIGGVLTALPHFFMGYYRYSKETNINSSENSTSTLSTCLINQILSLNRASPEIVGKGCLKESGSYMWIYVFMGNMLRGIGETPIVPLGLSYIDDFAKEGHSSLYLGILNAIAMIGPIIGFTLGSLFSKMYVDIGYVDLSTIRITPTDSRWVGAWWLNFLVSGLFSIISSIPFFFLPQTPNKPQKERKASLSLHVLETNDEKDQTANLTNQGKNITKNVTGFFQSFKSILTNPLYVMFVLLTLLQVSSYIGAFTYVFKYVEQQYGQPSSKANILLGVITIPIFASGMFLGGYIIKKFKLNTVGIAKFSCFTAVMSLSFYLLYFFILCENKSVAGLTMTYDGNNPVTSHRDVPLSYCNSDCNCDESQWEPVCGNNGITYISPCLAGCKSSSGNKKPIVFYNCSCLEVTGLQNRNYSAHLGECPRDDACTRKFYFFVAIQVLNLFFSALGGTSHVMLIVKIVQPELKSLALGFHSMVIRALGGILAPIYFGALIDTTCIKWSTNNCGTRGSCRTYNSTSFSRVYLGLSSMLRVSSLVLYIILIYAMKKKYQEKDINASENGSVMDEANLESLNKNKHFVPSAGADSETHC
Source text: In this experiment, a suspension assay for characterizing the activity of a drug transporter protein in cryopreserved, Corning® TransportoCells™ was developed. More specifically, the use of a centrifugation method versus a vacuum manifold for separating unreacted substrate in characterizing the activity of Organic Anion-Transporting Polypeptide 1B1 was investigated. Corning® TransportoCells™ transiently transfected with the gene OATP1B1*1a were obtained from Corning Life Sciences (Cat. No. 354859). In the Corning® TransportoCells™, the gene OATP1B1*1a was delivered into HEK293 cells via electroporation and the HEK293 cells were recovered and cryopreserved 1 hour post-electroporation. In order to obtain suitable expression of the Organic Anion-Transporting Polypeptide 1B1 encoded by OATP1B1*1a, the Corning® TransportoCells™ were thawed, cultured, and harvested.
The cells were cultured in T-175 Vented-Cap Culture Flasks with Poly-D-Lysine (hereinafter, “PDL”; available from Corning Life Sciences, Cat. No. 354539) with plating medium for 48 hours at 37° C. and 8% CO2. The plating medium is detailed in Table 16. After 24 hours, sodium butyrate (obtained from Sigma) was added to the cells to reach final 5 mM. After 48 hours, the cells were rinsed twice with Phosphate-Buffered Saline (hereinafter, “PBS”, obtained from Corning).
The cells were then harvested with 0.05% Trypsin (obtained from Sigma) and washed once with Hank's Balanced Salt Solution (hereinafter, “HBSS”) buffer (with Ca^2+ and Mg^2+, obtained from Corning). Then, the cells were resuspended in HBSS (obtained from Corning) to a final cell density of 3×10^6 cells/ml. […]
Then, the cells were transferred to FiltrEX™ 96 Well Filter Plates with 0.66 mm Thick Glass Fiber Filter (available from Corning Life Sciences, Cat. No. 3511) and a vacuum was applied. […] The cell lysis was then subjected to the appropriate protein analysis and/or fluorescence analysis to characterize the activity of Organic Anion-Transporting Polypeptide 1B1.

[2] = molecular target: T2, OATP1B1*5 (Homo sapiens, UniProt Q9Y6L6, V174A); assay: OATP1B1 single nucleotide polymorphism panel uptake assay, OATP1B1*5 HEK-293 cells
T2 sequence (Q9Y6L6 1-691 V174A): T1 sequence (Q9Y6L6 1-691) with V174A

## C[C@]12CC[C@@H]3c4ccc(O)cc4CC[C@H]3[C@@H]1CC[C@@H]2O[C@@H]1O[C@H](C(=O)O)[C@@H](O)[C@H](O)[C@H]1O [E17βG]
[1]
  Uptake Activity OATP1B1: 2.19 pmol/mg/min
[2]
  uptake activity / transport compared to OATP1B1*1a cells (in words): Significantly impaired transport

## fluorescein methotrexate [FMTX]
[1]
  Uptake Activity OATP1B1: 0.46 pmol/mg/min
  Uptake Ratio: 6.8
[2]
  uptake activity / transport compared to OATP1B1*1a cells (in words): Significantly impaired transport
